Test results reported in patent US8829004B2, “Method for inducing tumor apoptosis by increasing nitric oxide levels” (Universitätsklinikum Freiburg, priority 2006, dated 2014).

Tests used:
[1] = system: Gumbus; test: Inhibitor effect on inducer-mediated apoptosis, Gumbus cells (Example 6); assay type: cell-based
Procedure: (§1) The effect of a singlet oxygen scavenger, a NO synthase inhibitor and a HOCl scavenger on either the destruction of the catalase or the HOCl pathway was determined by the following experiment. 12500 SISO cells in 100 μl media in 96 tissue wells were treated with taxol (20 μg/ml) in the presence of TGF-β (20 ng/ml). In addition, the singlet oxygen scavenger, the NO synthase inhibitor or the HOCl scavenger was added at different points of time in the experiments.
(§2) Further experiments have been carried out using different types of cells and different apoptosis inhibitors. The experimental setup was analogue to the examples 5a-5c and the late addition of the inhibitor (histidine, L-NAME, 3-Br-7-Nitroindazole or taurine) was performed 1 hour after beginning of the experiment. The concentrations of taxol, histidine, L-NAME and taurine were the same as in the experiments 5a-5c. 3-Br-7-Nitroindazole was added at a concentration of 10 μm. The apoptosis inducing compounds were added at increasing concentrations (0-5 mM arginine, 0-20 μg/ml taxol, 0-20 μg/ml artemisine, 0-20 μg/ml xanthohumol, 0-20 μg/ml itraconazole, 0-10 μg/ml miconazole, 0-20 μg/ml antibody against Apo/FAS receptor). In each of the experiments, the effect of the inhibitors on the singlet oxygen mediated catalase destruction and/or the subsequent ROS signaling could be observed. […] Addition of histidine at the beginning of the experiment caused inhibition in all experiments and for all cell lines shown. […] The experiments using neuroblastoma cells only display apoptosis mediated by the NO pathway as these cells only release small amounts of peroxidase. Therefore, addition of the nNOS-specific inhibitor 3-Br-7NI caused inhibition of apoptosis, irrespective of the time of addition. […] Addition of taurine in the presence of higher concentrations of inducers inhibited apoptosis irrespective of the time of addition (zero versus one hour), as HOCl is only involved in intercellular signaling, but not in catalase destruction.

[2] = system: SKNMC; test: Inhibitor effect on inducer-mediated apoptosis, SKNMC cells (Example 6); assay type: cell-based, human
Procedure: as §1
Further experiments have been carried out using different types of cells and different apoptosis inhibitors. The experimental setup was analogue to the examples 5a-5c and the late addition of the inhibitor (histidine, L-NAME, 3-Br-7-Nitroindazole or taurine) was performed 1 hour after beginning of the experiment. The concentrations of taxol, histidine, L-NAME and taurine were the same as in the experiments 5a-5c. 3-Br-7-Nitroindazole was added at a concentration of 10 μm. The apoptosis inducing compounds were added at increasing concentrations (0-5 mM arginine, 0-20 μg/ml taxol, 0-20 μg/ml artemisine, 0-20 μg/ml xanthohumol, 0-20 μg/ml itraconazole, 0-10 μg/ml miconazole, 0-20 μg/ml antibody against Apo/FAS receptor). In each of the experiments, the effect of the inhibitors on the singlet oxygen mediated catalase destruction and/or the subsequent ROS signaling could be observed. […]

[3] = system: SISO cells (human cervix carcinoma); test: Apoptosis induction by taxol in SISO cells, 48 well (FIGS. 6-8, Example 4); assay type: cell-based; conditions: 10 mM arginine, 200 μM Nor-NOHA or both, suboptimal taxol, 20 ng/ml TGF
Procedure: FIG. 6 discloses experimental data obtained with 25000 SISO cells (human cervix carcinoma) cultured in 48 well tissue culture clusters in the presence of the indicated concentrations of the established chemotherapeutic compound taxol. The assays contained 2 mM Histidine or not.
FIG. 7 discloses experimental data obtained with 25000 SISO cells (human cervix carcinoma) cultured in 48 well tissue culture clusters either in the absence of any inducer (“no addition”) or in the presence of 10 μg/ml taxol (“TAX”) without further additions or with the addition of 100 μM of the NADPH oxidase inhibitor AEBSF, 100 U/ml of the superoxide anion scavenger SOD (Manganese-containing SOD from E. coli), 100 U/ml catalase, 150 μM of the peroxidase inhibitor ABH (aminobenzoylhydrazide), 50 mM of the HOCl scavenger taurine, 1 mM of the hydroxyl radical scavenger mannitol, 2.4 mM of the NO synthase inhibitor L-NAME, and 25 μM of the inhibitors for caspase 3, −9 and 8.
FIG. 8 discloses experimental data obtained with 25 000 SISO cells in 48 well tissue culture clusters in the presence of 20 ng/ml TGF and the indicated concentrations of taxol. Where indicated, taxol containing assays received 10 mM arginine (10 ARG), 200 μM Nor-NOHA or a combination of both.
Human SISO cells are used in a 48-well plate (Costar) in 200 μl media with a cell concentration of 25,000. The media comprises 20 ng/ml TGF-beta and furthermore Taxol subjected for testing in a concentration ranging from 1.25-20 ng/ml. For comparison, control experiments are performed without Taxol which is tested for apoptosis induction.
Step 2 is carried out with the same conditions as specified for step 1, whereas all cells are contacted with taxol. In addition, histidine (2 mM) is added to the cells, whereas also experiments without histidine are performed as control experiments.
In a further experiment using the conditions of step 1, human tumor cells (SISO) are contacted with taxol (10 μg/ml) and 100 μM of the NADPH oxidase inhibitor AEBSF, 100 U/ml of the superoxide anion scavenger SOD (Manganese-containing SOD from E. coli), 100 U/ml catalase, 150 μM of the peroxidase inhibitor ABH (aminobenzoylhydrazide), 50 mM of the HOCl scavenger taurine, 1 mM of the hydroxyl radical scavenger mannitol or 2.4 mM of the NO synthase inhibitor L-NAME.

[4] = system: MKN-45; test: Inhibitor effect on inducer-mediated apoptosis, MKN-45 cells (Example 6); assay type: cell-based
Procedure: as §1, §2

SMILES	apoptosis inhibitory effect of Histidine [1]	apoptosis inhibitory effect of L-NAME [1]	apoptosis inhibitory effect of Taurine [1]	apoptosis inhibitory effect of Histidine [2]	apoptosis inhibitory effect of 3-Br-7-NI ([2]; 3-Br-7-Nitroindazole 10 μm)	synergistic effect with taxol on apoptosis [3]	apoptosis inhibitory effect of Histidine [4]	apoptosis inhibitory effect of L-NAME [4]	apoptosis inhibitory effect of Taurine [4]
N=C(N)NCCC[C@H](N)C(=O)O [Arginine]	+	+	+	+	+	synergistic effect			
C[C@@H]1CC[C@H]2[C@@H](C)C(=O)O[C@@H]3O[C@@]4(C)CC[C@@H]1[C@]32OO4 [Artemisinine]							+	+	+
CCC(C)n1ncn(-c2ccc(N3CCN(c4ccc(OCC5COC(Cn6cncn6)(c6ccc(Cl)cc6Cl)O5)cc4)CC3)cc2)c1=O (stereo not shown) [Itraconazole]	+	+	+						
Clc1ccc(COC(Cn2ccnc2)c2ccc(Cl)cc2Cl)c(Cl)c1 (stereo not shown) [Miconazole]	+	+	+						
N=C(NO)NCC[C@H](N)C(=O)O [Nor-NOHA, N^omega-hydroxy-nor-L-arginine]						synergistic effect			
COc1cc(O)c(CC=C(C)C)c(O)c1C(=O)/C=C/c1ccc(O)cc1 [Xanthohumol]	+	+	+						
